The target of this assay is T1, human GluN1/GluN2B NMDA receptors (Homo sapiens, UniProt Q13224).
T1 construct: expressed in transfected cells
The assay is described as follows: Calcium flux (FLIPR) assay on cloned human NR1/GluN2B ion channels expressed in mammalian cells (standard and HTS variants). Type of assay: cell-based. The conditions noted are these: cells expressing human GluN1/GluN2B, glutamate and glycine co-agonists. Summed up: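 Tet-On-induced stable cell line loaded with Calcium 5 dye; compounds applied 5 min (agonist check), then glutamate at ~EC40 plus 10 μM glycine for 5 min. Buffer pH 7.4 with 0.5 mM MgCl2 in dye loading (standard) or 1.5 mM (HTS). FLIPR fluorescence normalized to control wells; (+)MK-801 as antagonist control.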
A general note: Calcium flux is commonly read through the fluorescence of an indicator in the cells.

Structures can show the parent of a compound that is named as a salt. Some results are limits rather than exact numbers.

T1 sequence (Q13224 27-1484, other chains not shown): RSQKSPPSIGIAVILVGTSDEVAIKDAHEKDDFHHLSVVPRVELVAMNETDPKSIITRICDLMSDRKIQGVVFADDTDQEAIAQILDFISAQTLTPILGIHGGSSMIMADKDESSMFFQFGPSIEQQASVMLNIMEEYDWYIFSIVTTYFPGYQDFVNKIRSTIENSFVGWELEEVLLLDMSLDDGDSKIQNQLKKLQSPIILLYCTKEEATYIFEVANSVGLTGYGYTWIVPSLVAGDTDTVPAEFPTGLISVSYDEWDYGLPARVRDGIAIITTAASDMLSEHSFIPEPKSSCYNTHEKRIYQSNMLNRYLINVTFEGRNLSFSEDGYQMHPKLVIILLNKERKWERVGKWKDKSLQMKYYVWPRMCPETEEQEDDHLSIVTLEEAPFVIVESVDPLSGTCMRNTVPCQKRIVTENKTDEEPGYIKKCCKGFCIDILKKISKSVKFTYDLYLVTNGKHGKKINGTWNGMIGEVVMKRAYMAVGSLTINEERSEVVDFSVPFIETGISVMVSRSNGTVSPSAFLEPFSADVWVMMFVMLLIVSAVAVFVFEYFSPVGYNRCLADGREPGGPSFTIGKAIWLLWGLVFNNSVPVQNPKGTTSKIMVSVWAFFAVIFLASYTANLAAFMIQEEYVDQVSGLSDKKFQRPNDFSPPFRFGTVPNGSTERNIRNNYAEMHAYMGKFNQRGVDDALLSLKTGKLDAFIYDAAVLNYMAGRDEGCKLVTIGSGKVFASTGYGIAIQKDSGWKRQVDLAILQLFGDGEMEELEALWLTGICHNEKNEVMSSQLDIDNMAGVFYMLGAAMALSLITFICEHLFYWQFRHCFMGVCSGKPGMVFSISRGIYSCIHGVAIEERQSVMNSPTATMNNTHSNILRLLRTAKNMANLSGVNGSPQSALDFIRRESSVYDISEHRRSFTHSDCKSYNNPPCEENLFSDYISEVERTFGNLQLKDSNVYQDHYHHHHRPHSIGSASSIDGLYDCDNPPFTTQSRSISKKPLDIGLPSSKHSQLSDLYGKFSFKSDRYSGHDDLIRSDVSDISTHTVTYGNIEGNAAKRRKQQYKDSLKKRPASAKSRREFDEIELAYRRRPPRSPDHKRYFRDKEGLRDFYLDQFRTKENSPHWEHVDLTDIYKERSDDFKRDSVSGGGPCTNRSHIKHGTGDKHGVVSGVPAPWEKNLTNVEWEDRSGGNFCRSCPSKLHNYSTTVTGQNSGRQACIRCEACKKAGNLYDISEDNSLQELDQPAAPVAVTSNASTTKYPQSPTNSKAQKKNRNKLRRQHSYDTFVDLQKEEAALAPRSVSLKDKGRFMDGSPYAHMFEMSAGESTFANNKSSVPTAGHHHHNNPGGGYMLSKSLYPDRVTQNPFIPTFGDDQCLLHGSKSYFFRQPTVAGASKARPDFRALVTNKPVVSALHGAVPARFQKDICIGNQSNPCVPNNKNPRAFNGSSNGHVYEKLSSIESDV

With `Fc1ccc(-c2cnc3cnn(Cc4cncc(C(F)F)c4)c3c2)cc1C(F)F` [Example 209, 6-[3-(Difluoromethyl)-4-fluoro-phenyl]-1-[[5-(difluoromethyl)-3-pyridyl]methyl]pyrazolo[4,3-b]pyridine], the IC50 (commonly the midpoint of a concentration-inhibition curve) worked out at 20 nM.

As for `Fc1ccc(Cn2ncc3ncc(-c4ccc(F)c(Br)c4)cc32)cn1` [Example 235, 6-(3-Bromo-4-fluorophenyl)-1-((6-fluoropyridin-3-yl)methyl)-1H-pyrazolo[4,3-b]pyridine], the IC50 stood at 253 nM.

As for `COc1ncccc1Cn1ncc2ncc(-c3ccc(F)c(OC(F)F)c3)cc21` [Example 229, 6-[3-(Difluoromethoxy)-4-fluoro-phenyl]-1-[(2-methoxy-3-pyridyl)methyl]pyrazolo[4,3-b]pyridine], the IC50 was found to be 716 nM.

Take `Cc1cc(-c2cnc3cnn(Cc4ccc(F)nc4)c3c2)ccc1F` [Example 182, 6-(4-Fluoro-3-methyl-phenyl)-1-[(6-fluoro-3-pyridyl)methyl]pyrazolo[4,3-b]pyridine]: the IC50 was determined as 64 nM.

On to `Fc1ncccc1Cn1ncc2ncc(-c3cccc(C(F)(F)F)c3)cc21` [Example 170, 1-[(2-Fluoro-3-pyridyl)methyl]-6-[3-(trifluoromethyl)phenyl]pyrazolo[4,3-b]pyridine], for which the IC50 stood at 1040 nM.

On to `N#Cc1cc(F)cc(Cn2ncc3ncc(-c4ccc(F)c(OC(F)F)c4)cc32)c1` [Example 31, 3-[[6-[3-(Difluoromethoxy)-4-fluoro-phenyl]pyrazolo[4,3-b]pyridin-1-yl]methyl]-5-fluoro-benzonitrile], for which the IC50 amounted to 389 nM.

As to `COc1cccc(Cn2ncc3ncc(-c4ccc(F)c(OC(F)F)c4)cc32)n1` [Example 228, 6-[3-(Difluoromethoxy)-4-fluoro-phenyl]-1-[(6-methoxy-2-pyridyl)methyl]pyrazolo[4,3-b]pyridine], the half-maximal inhibitory concentration (IC50) amounted to 383 nM.

Turning to `Cc1noc(C)c1Cn1ncc2ncc(-c3ccc(F)c(C(F)F)c3)cc21` [Example 57, 4-[[6-[3-(Difluoromethyl)-4-fluoro-phenyl]pyrazolo[4,3-b]pyridin-1-yl]methyl]-3,5-dimethyl-isoxazole], the IC50 amounted to 82 nM.

For `FC(F)c1cccc(-c2cnc3cnn(Cc4ccccn4)c3c2)c1` [Example 156, 6-[3-(Difluoromethyl)phenyl]-1-(2-pyridylmethyl)pyrazolo[4,3-b]pyridine], the IC50 came out at 740 nM.

As for `Cc1nnc(Cn2ncc3ncc(-c4ccc(F)c(C)c4)cc32)s1` [Example 132, 2-[[6-(4-Fluoro-3-methyl-phenyl)pyrazolo[4,3-b]pyridin-1-yl]methyl]-5-methyl-1,3,4-thiadiazole], the half-inhibitory concentration (IC50) was determined as 33 nM.

For the molecule `N#Cc1cc(F)cc(Cn2ncc3ncc(-c4ccc(F)c(C(F)F)c4)cc32)c1` [Example 28, 3-[[6-[3-(Difluoromethyl)-4-fluoro-phenyl]pyrazolo[4,3-b]pyridin-1-yl]methyl]-5-fluoro-benzonitrile], the concentration for half-maximal inhibition (IC50) is 125 nM.

For the molecule `COc1cncc(Cn2ncc3ncc(-c4ccc(Cl)c(C(F)F)c4)cc32)c1` [Example 232, 6-[4-chloro-3-(Difluoromethyl)phenyl]-1-[(5-methoxy-3-pyridyl)methyl]pyrazolo[4,3-b]pyridine], the IC50 turned out to be 40 nM.

For the molecule `N#Cc1cccc(Cn2ncc3ncc(-c4cccc(C(F)(F)F)c4)cc32)c1` [Example 23, 3-[[6-[3-(Trifluoromethyl)phenyl]pyrazolo[4,3-b]pyridin-1-yl]methyl]benzonitrile], the half-inhibitory concentration (IC50) amounted to 400 nM.

On to `COc1cncc(Cn2ncc3ncc(-c4ccc(F)c(Cl)c4)cc32)c1` [Example 196, 6-(3-Chloro-4-fluoro-phenyl)-1-[(5-methoxy-3-pyridyl)methyl]pyrazolo[4,3-b]pyridine], for which the IC50 is 152 nM.

As to `Cc1cccc(-c2cnc3cnn(Cc4cccnn4)c3c2)c1` [Example 255, 6-(m-Tolyl)-1-(pyridazin-3-ylmethyl)pyrazolo[4,3-b]pyridine], the IC50 amounted to 329 nM.

For the molecule `Cc1cnc(Cn2ncc3ncc(-c4ccc(F)c(OC(F)F)c4)cc32)s1` [Example 69, 2-[[6-[3-(Difluoromethoxy)-4-fluoro-phenyl]pyrazolo[4,3-b]pyridin-1-yl]methyl]-5-methyl-thiazole], the concentration for half-maximal inhibition (IC50) was found to be 104 nM.

`Cc1c(F)ccc(-c2cnc3cnn(Cc4cccnn4)c3c2)c1F` [Example 269, 6-(2,4-Difluoro-3-methyl-phenyl)-1-(pyridazin-3-ylmethyl)pyrazolo[4,3-b]pyridine]: the IC50 stood at 108 nM.

Take `Fc1ccc(-c2cnc3cnn(Cc4cn[nH]c4)c3c2)cc1OC(F)F` [Example 11, 6-[3-(Difluoromethoxy)-4-fluoro-phenyl]-1-(1H-pyrazol-4-ylmethyl)pyrazolo[4,3-b]pyridine]: the IC50 was determined as 486 nM.

For the molecule `Cn1cc(Cn2ncc3ncc(-c4ccc(F)c(OC(F)F)c4)cc32)nn1` [Example 72, 6-[3-(Difluoromethoxy)-4-fluoro-phenyl]-1-[(1-methyltriazol-4-yl)methyl]pyrazolo[4,3-b]pyridine], the IC50 amounted to 827 nM.

With `FC(F)(F)c1cccc(-c2cnc3cnn(Cc4ccon4)c3c2)c1` [Example 44, 3-[[6-[3-(Trifluoromethyl)phenyl]pyrazolo[4,3-b]pyridin-1-yl]methyl]isoxazole], the IC50 is 165 nM.

Turning to `Cc1noc(Cn2ncc3ncc(-c4cccc(C(F)(F)F)c4)cc32)n1` [Example 84, 3-Methyl-5-[[6-[3-(trifluoromethyl)phenyl]pyrazolo[4,3-b]pyridin-1-yl]methyl]-1,2,4-oxadiazole], the IC50 came out at 293 nM.

For `Fc1ccc(-c2cnc3cnn(Cc4cccnc4)c3c2)cc1OC(F)F` [Example 223, 6-[3-(Difluoromethoxy)-4-fluoro-phenyl]-1-(3-pyridylmethyl)pyrazolo[4,3-b]pyridine], the concentration for half-maximal inhibition (IC50) amounted to 38 nM.

Consider `FC(F)(F)c1ccc(Cn2ncc3ncc(-c4cccc(C(F)(F)F)c4)cc32)cc1` [Example 25, 6-[3-(Trifluoromethyl)phenyl]-1-[[4-(trifluoromethyl)phenyl]methyl]pyrazolo[4,3-b]pyridine hydrochloride salt], for which the IC50 is more than 10000 nM.

In the case of `Fc1ccc(Cn2ncc3ncc(-c4ccc(F)c(C(F)F)c4)cc32)cn1` [Example 201, 6-(3-(Difluoromethyl)-4-fluorophenyl)-1-((6-fluoropyridin-3-yl)methyl)-1H-pyrazolo[4,3-b]pyridine], the IC50 was found to be 16 nM.

Take `Fc1ccc(-c2cnc3cnn(Cc4cccnn4)c3c2)cc1F` [Example 266, 6-(3,4-Difluorophenyl)-1-(pyridazin-3-ylmethyl)pyrazolo[4,3-b]pyridine]: the IC50 was 670 nM.

Take `Cc1noc(Cn2ncc3ncc(-c4ccc(F)c(OC(F)F)c4)cc32)n1` [Example 112, 5-[[6-[3-(Difluoromethoxy)-4-fluoro-phenyl]pyrazolo[4,3-b]pyridin-1-yl]methyl]-3-methyl-1,2,4-oxadiazole]: the IC50 is 289 nM.

Consider `Nc1nnc(Cn2ncc3ncc(-c4ccc(F)c(OC(F)F)c4)cc32)s1` [Example 18, 5-[[6-[3-(Difluoromethoxy)-4-fluoro-phenyl]pyrazolo[4,3-b]pyridin-1-yl]methyl]-1,3,4-thiadiazol-2-amine], for which the IC50 is 3550 nM.

Turning to `Cc1nnc(Cn2ncc3ncc(-c4ccc(C(F)(F)F)s4)cc32)o1` [Example 78, 2-Methyl-5-[[6-[5-(trifluoromethyl)-2-thienyl]pyrazolo[4,3-b]pyridin-1-yl]methyl]-1,3,4-oxadiazole], the IC50 is 143 nM.

The values are drawn from US11530210B2, “Substituted heteroaromatic pyrazolo-pyridines and their use as GLUN2B receptor modulators” (JANSSEN PHARMACEUTICA NV, priority 2019, dated 2022).
